Measured values reported in ChEMBL document CHEMBL5030544, “Synthesis, anti-microbial, toxicity and molecular docking studies of N-nitroso-N-phenylhydroxylamine (cupferron) and its derivatives” (Bioorg Med Chem Lett, 2021).
Converted amounts (≈) assume the structure as drawn. The source made the active and inactive calls. The rule behind the calls is not given here.

Key:
Staphylococcus aureus [1] = experiment: Antibacterial activity against Staphylococcus aureus […] assessed as zone of inhibition at 15 mg/ml; format: functional; conditions: for zone of inhibition at 15000 µg/mL: read-out: IZ
Escherichia coli [2] = experiment: Antibacterial activity against Escherichia coli ATCC 25922 assessed as bacterial growth inhibition; format: functional
Bacillus subtilis [3] = experiment: Antibacterial activity against Bacillus subtilis ATCC 23857 assessed as zone of inhibition at 15 mg/ml; format: functional; conditions: for zone of inhibition at 15000 µg/mL: read-out: IZ
Corynebacterium [4] = experiment: Antibacterial activity against Corynebacterium ATCC 49368 assessed as zone of inhibition at 15 mg/ml; format: functional; conditions: for zone of inhibition at 15000 µg/mL: read-out: IZ
Klebsiella pneumoniae [5] = experiment: Antibacterial activity against Klebsiella pneumoniae ATCC 13883 assessed as bacterial growth inhibition; format: functional
Streptococcus pyogenes [6] = experiment: Antibacterial activity against Streptococcus pyogenes ATCC 19615 assessed as zone of inhibition at 15 mg/ml; format: functional; conditions: for zone of inhibition at 15000 µg/mL: read-out: IZ
Staphylococcus aureus [7] = experiment: Antibacterial activity against Staphylococcus aureus […] assessed as zone of inhibition at 10 mg/ml; format: functional; conditions: for zone of inhibition at 10000 µg/mL: read-out: IZ
Klebsiella pneumoniae [8] = experiment: Antibacterial activity against Klebsiella pneumoniae ATCC 13883 assessed as zone of inhibition at 15 mg/kg; format: functional; conditions: read-out: IZ
Streptococcus pyogenes [9] = experiment: Antibacterial activity against Streptococcus pyogenes ATCC 19615 assessed as bacterial growth inhibition; format: functional
Streptococcus pyogenes [10] = experiment: Antibacterial activity against Streptococcus pyogenes ATCC 19615 assessed as zone of inhibition at 10 mg/ml; format: functional; conditions: for zone of inhibition at 10000 µg/mL: read-out: IZ
Bacillus subtilis [11] = experiment: Antibacterial activity against Bacillus subtilis ATCC 23857 assessed as zone of inhibition at 10 mg/ml; format: functional; conditions: for zone of inhibition at 10000 µg/mL: read-out: IZ
Corynebacterium [12] = experiment: Antibacterial activity against Corynebacterium ATCC 49368 assessed as zone of inhibition at 10 mg/ml; format: functional; conditions: for zone of inhibition at 10000 µg/mL: read-out: IZ
Streptococcus pyogenes [13] = experiment: Antibacterial activity against Streptococcus pyogenes ATCC 19615 assessed as zone of inhibition at 5 mg/ml; format: functional; conditions: for zone of inhibition at 5000 µg/mL: read-out: IZ
Staphylococcus aureus [14] = experiment: Antibacterial activity against Staphylococcus aureus […] assessed as zone of inhibition at 5 mg/ml; format: functional; conditions: for zone of inhibition at 5000 µg/mL: read-out: IZ
Pseudomonas aeruginosa [15] = experiment: Antibacterial activity against Pseudomonas aeruginosa ATCC 27853 assessed as zone of inhibition at 15 mg/ml; format: functional; conditions: read-out: IZ
Pseudomonas aeruginosa [16] = experiment: Antibacterial activity against Pseudomonas aeruginosa ATCC 27853 assessed as zone of inhibition at 10 mg/ml; format: functional; conditions: read-out: IZ
Salmonella typhi [17] = experiment: Antibacterial activity against Salmonella typhi ATCC 6539 assessed as bacterial growth inhibition; format: functional, Salmonella enterica subsp. enterica serovar Typhi
HepG2 = experiment: Cytotoxicity against human HepG2 cells at up to 100 uM by MTT assay; format: cell-based
Salmonella typhi [18] = experiment: Antibacterial activity against Salmonella typhi ATCC 6539 assessed as zone of inhibition at 15 mg/kg; format: functional, Salmonella enterica subsp. enterica serovar Typhi; conditions: for zone of inhibition at 15 mg/kg: Salmonella enterica, read-out: IZ
Salmonella typhi [19] = experiment: Antibacterial activity against Salmonella typhi ATCC 6539 assessed as zone of inhibition at 5 mg/kg; format: functional, Salmonella enterica subsp. enterica serovar Typhi; conditions: Salmonella enterica, read-out: IZ
Bacillus subtilis [20] = experiment: Antibacterial activity against Bacillus subtilis ATCC 23857 assessed as bacterial growth inhibition; format: functional
Escherichia coli [21] = experiment: Antibacterial activity against Escherichia coli ATCC 25922 assessed as zone of inhibition at 15 mg/ml; format: functional; conditions: read-out: IZ
Klebsiella pneumoniae [22] = experiment: Antibacterial activity against Klebsiella pneumoniae ATCC 13883 assessed as zone of inhibition at 5 mg/kg; format: functional; conditions: read-out: IZ
Klebsiella pneumoniae [23] = experiment: Antibacterial activity against Klebsiella pneumoniae ATCC 13883 assessed as zone of inhibition at 10 mg/kg; format: functional; conditions: read-out: IZ
LLC-PK1 = experiment: Cytotoxicity against pig LLC-PK1 cells at up to 100 uM by MTT assay; format: cell-based, Sus scrofa
Corynebacterium [24] = experiment: Antibacterial activity against Corynebacterium ATCC 49368 assessed as bacterial growth inhibition; format: functional
Escherichia coli [25] = experiment: Antibacterial activity against Escherichia coli ATCC 25922 assessed as zone of inhibition at 10 mg/ml; format: functional; conditions: read-out: IZ
Staphylococcus aureus [26] = experiment: Antibacterial activity against Staphylococcus aureus […] assessed as bacterial growth inhibition; format: functional
Pseudomonas aeruginosa [27] = experiment: Antibacterial activity against Pseudomonas aeruginosa ATCC 27853 assessed as bacterial growth inhibition; format: functional
Corynebacterium [28] = experiment: Antibacterial activity against Corynebacterium ATCC 49368 assessed as zone of inhibition at 5 mg/ml; format: functional; conditions: read-out: IZ
Pseudomonas aeruginosa [29] = experiment: Antibacterial activity against Pseudomonas aeruginosa ATCC 27853 assessed as zone of inhibition at 5 mg/ml; format: functional; conditions: read-out: IZ
Bacillus subtilis [30] = experiment: Antibacterial activity against Bacillus subtilis ATCC 23857 assessed as zone of inhibition at 5 mg/ml; format: functional; conditions: for zone of inhibition at 5000 µg/mL: read-out: IZ
Salmonella typhi [31] = experiment: Antibacterial activity against Salmonella typhi ATCC 6539 assessed as zone of inhibition at 10 mg/kg; format: functional, Salmonella enterica subsp. enterica serovar Typhi; conditions: for zone of inhibition at 10 mg/kg: Salmonella enterica, read-out: IZ
Escherichia coli [32] = experiment: Antibacterial activity against Escherichia coli ATCC 25922 assessed as zone of inhibition at 5 mg/ml; format: functional; conditions: read-out: IZ
[33] = Salmonella enterica subsp. enterica serovar Typhi

Row | Compound | zone of inhibition at 15000 µg/mL (Staphylococcus aureus [1]) [mm] | MIC (Escherichia coli [2]) | zone of inhibition at 15000 µg/mL (Bacillus subtilis [3]) [mm] | zone of inhibition at 15000 µg/mL (Corynebacterium [4]) [mm] | MIC (Klebsiella pneumoniae [5]) | zone of inhibition at 15000 µg/mL (Streptococcus pyogenes [6]) [mm] | zone of inhibition at 10000 µg/mL (Staphylococcus aureus [7]) [mm] | zone of inhibition at 15 mg/kg (Klebsiella pneumoniae [8]) [mm] | MIC (Streptococcus pyogenes [9]) [µg/mL] | zone of inhibition at 10000 µg/mL (Streptococcus pyogenes [10]) [mm] | zone of inhibition at 10000 µg/mL (Bacillus subtilis [11]) [mm] | zone of inhibition at 10000 µg/mL (Corynebacterium [12]) [mm] | zone of inhibition at 5000 µg/mL (Streptococcus pyogenes [13]) [mm] | zone of inhibition at 5000 µg/mL (Staphylococcus aureus [14]) [mm] | zone of inhibition at 15000 µg/mL (Pseudomonas aeruginosa [15]) [mm] | zone of inhibition at 10000 µg/mL (Pseudomonas aeruginosa [16]) [mm] | MIC (Bacillus subtilis [20]) [µg/mL] | MIC (Corynebacterium [24]) [µg/mL] | MIC (Staphylococcus aureus [26]) [µg/mL] | zone of inhibition at 5000 µg/mL (Bacillus subtilis [30]) [mm] | further results
1 | CN[C@@H]1[C@H](O[C@H]2[C@H](O[C@H]3[C@H](O)[C@@H](O)[C@H](N=C(N)N)[C@@H](O)[C@@H]3N=C(N)N)O[C@@H](C)[C@]2(O)C=O)O[C@@H](CO)[C@H](O)[C@H]1O [STREPTOMYCIN] | 8 | 16 µg/mL (≈ 27.5 µM) | 20 | 20 | 16 µg/mL (≈ 27.5 µM) | 10 | 4 | 14 | 8 (≈ 13.8 µM) | 3 | 10 | 8 | 2 | 2 | 15 | 11 |  |  |  |  | 
2 | N.O=NN(O)c1ccc(Cl)cc1 | 25 | 20 µg/mL | 35 | 23 | 20 µg/mL | 27 | 9 | 15 | 4 | 15 | 19 | 16.1 | 12 | 9 | 13 | 10 | 2 | 8 | 4 | 14 | MIC (Salmonella typhi [17]; Salmonella enterica): 20 µg/mL; Activity (HepG2): Non-Toxic; zone of inhibition at 15 mg/kg (Salmonella typhi [18]): 19 mm; zone of inhibition at 5 mg/kg (Salmonella typhi [19]): 9 mm; zone of inhibition at 15000 µg/mL (Escherichia coli [21]): 20 mm; zone of inhibition at 5 mg/kg (Klebsiella pneumoniae [22]): 8 mm; zone of inhibition at 10 mg/kg (Klebsiella pneumoniae [23]): 11 mm; Activity (LLC-PK1): Non-Toxic; zone of inhibition at 10000 µg/mL (Escherichia coli [25]): 14 mm; MIC (Pseudomonas aeruginosa [27]): 20 µg/mL; zone of inhibition at 5000 µg/mL (Corynebacterium [28]): 13 mm; zone of inhibition at 5000 µg/mL (Pseudomonas aeruginosa [29]): 5 mm; zone of inhibition at 10 mg/kg (Salmonella typhi [31]): 13 mm; zone of inhibition at 5000 µg/mL (Escherichia coli [32]): 10 mm
3 | O=C(O)c1cn(C2CC2)c2cc(N3CCNCC3)c(F)cc2c1=O [CIPROFLOXACIN] | 22 |  | 27 | 19 |  | 26 | 10 | 25 |  | 13 | 15 | 16 | 10 | 7 | 25 | 18 | 2 (≈ 6.04 µM) | 4 (≈ 12.1 µM) |  | 12 | zone of inhibition at 15 mg/kg (Salmonella typhi [18]): 32 mm; zone of inhibition at 15000 µg/mL (Escherichia coli [21]): 10 mm; zone of inhibition at 10 mg/kg (Klebsiella pneumoniae [23]): 12 mm; zone of inhibition at 10000 µg/mL (Escherichia coli [25]): 11 mm; zone of inhibition at 5000 µg/mL (Corynebacterium [28]): 10 mm; zone of inhibition at 5000 µg/mL (Pseudomonas aeruginosa [29]): 15 mm; zone of inhibition at 10 mg/kg (Salmonella typhi [31]): 15 mm
4 | GENTAMICIN |  |  |  |  |  |  |  |  |  |  |  |  |  |  |  |  |  |  | 8 |  | MIC (Salmonella typhi [17]; [33]): 16 µg/mL; inhibition zone (IZ) (Staphylococcus aureus [1]): 22 mm; inhibition zone (IZ) (Salmonella typhi [18]; [33]): 26 mm; inhibition zone (IZ) (Bacillus subtilis [3]): 24 mm; inhibition zone (IZ) (Corynebacterium [4]): 23 mm; inhibition zone (IZ) (Streptococcus pyogenes [6]): 25 mm; inhibition zone (IZ) (Staphylococcus aureus [7]): 11 mm; inhibition zone (IZ) (Streptococcus pyogenes [10]): 13 mm; inhibition zone (IZ) (Bacillus subtilis [11]): 10 mm; inhibition zone (IZ) (Corynebacterium [12]): 10 mm; inhibition zone (IZ) (Streptococcus pyogenes [13]): 3 mm; inhibition zone (IZ) (Staphylococcus aureus [14]): 10 mm; inhibition zone (IZ) (Bacillus subtilis [30]): 5 mm; inhibition zone (IZ) (Salmonella typhi [31]; [33]): 12 mm
5 | N.O=NN(O)c1ccc(CCl)cc1 | 20 | inactive | 18 | 17 | inactive | 18 | 12 | 10 | 8 | 12 | 14 | 14 | 10 | 8 | 15 | 10 | 16 | 16 | 16 | 10 | MIC (Salmonella typhi [17]; [33]): inactive; zone of inhibition at 10 mg/kg (Klebsiella pneumoniae [23]): 7 mm; zone of inhibition at 5000 µg/mL (Corynebacterium [28]): 13 mm
6 | N.O=NN(O)c1ccccc1 | 12 | inactive | 17 | 10 | inactive | 20 | 9 |  | 20 | 10 | 15 |  | 8 |  |  |  | 16 | 20 | 20 | 10 | MIC (Salmonella typhi [17]; Salmonella enterica): 20 µg/mL; MIC (Staphylococcus aureus [14]): inactive
